≈ marks a conversion by molar mass, not a printed value. Numbered stars: 1 amine (or outer) side, 2 acyl side, 3 side chain; on linkers, the order of the positions; unused ones are H or OH. Square brackets hold non-standard residues; d marks the D form. Peptide text beside a SMILES is read from it. * marks the point of attachment. X8 = NC(=O)CN(C[C@H](Cc1ccccc1)N*)S(=O)(=O)c1cc(C(F)(F)F)cc(C(F)(F)F)c1; X6 = CC(C)C[C@@H](CN(CC(N)=O)S(=O)(=O)c1cc(C(F)(F)F)cc(C(F)(F)F)c1)N*; X5 = NC(=O)CN(C[C@H](Cc1ccccc1)N*)S(=O)(=O)c1ccc(C(F)(F)F)cc1; X4 = N[C@@H](Cc1ccccc1)CN(CC(=O)[*:2])[*:1]; X7 = O=S(=O)(c1cc(C(F)(F)F)cc(C(F)(F)F)c1)*; X2 = CC(C)C[C@H](N)CN(CC(=O)[*:2])[*:1]; X1 = O=S(=O)(c1ccc(C(F)(F)F)cc1)*
How the values were obtained:
Salmonella typhimurium = experiment: Antimicrobial activity against Salmonella typhimurium ATCC 14028 assessed as inhibition of visible bacterial growth incubated for 18 hrs by broth-dilution method; assay type: functional, Salmonella enterica subsp. enterica serovar Typhimurium; settings: Salmonella enterica
Staphylococcus aureus [1] = experiment: Antimicrobial activity against methicillin-resistant Staphylococcus aureus ATCC 33591 assessed as inhibition of visible bacterial growth incubated for 18 hrs by broth-dilution method; assay type: functional
[2] = test system: Staphylococcus epidermidis; experiment: Antimicrobial activity against Staphylococcus epidermidis ATCC 12228 assessed as inhibition of visible bacterial growth incubated for 18 hrs by broth-dilution method; assay type: functional
Acinetobacter baumannii = experiment: Antimicrobial activity against Acinetobacter baumannii ATCC 19606 assessed as inhibition of visible bacterial growth incubated for 18 hrs by broth-dilution method; assay type: functional
Erythrocyte = experiment: Hemolytic activity against mouse Red blood cell incubated for 1 hr; assay type: toxicity, cell-based
Escherichia coli = experiment: Antimicrobial activity against Escherichia coli ATCC 25922 assessed as inhibition of visible bacterial growth incubated for 18 hrs by broth-dilution method; assay type: functional
Staphylococcus aureus [3] = experiment: Antimicrobial activity against Staphylococcus aureus ATCC 25923 assessed as inhibition of visible bacterial growth incubated for 18 hrs by broth-dilution method; assay type: functional
Pseudomonas aeruginosa = experiment: Antimicrobial activity against Pseudomonas aeruginosa ATCC 27853 assessed as inhibition of visible bacterial growth incubated for 18 hrs by broth-dilution method; assay type: functional
Bacillus subtilis = experiment: Antimicrobial activity against Bacillus subtilis ATCC 23857 assessed as inhibition of visible bacterial growth incubated for 18 hrs by broth-dilution method; assay type: functional
Staphylococcus aureus [4] = experiment: Antimicrobial activity against Staphylococcus aureus ATCC 25923 assessed as reduction in bacterial growth in presence of Ca2+; assay type: functional
[5] = Stability in human serum assessed as half life measured for 5 hrs by RP-HPLC analysis; assay type: ADME, cell-free
Staphylococcus aureus [6] = experiment: Antimicrobial activity against Staphylococcus aureus ATCC 25923 assessed as fold change in MIC in presence of salt solution; assay type: functional

SMILES | MIC (Salmonella typhimurium) | MIC (Staphylococcus aureus [1]) | MIC [2] | MIC (Acinetobacter baumannii) | MHC (Erythrocyte) | MIC (Escherichia coli) | MIC (Staphylococcus aureus [3]) | MIC (Pseudomonas aeruginosa) | MIC (Bacillus subtilis) | MIC (Staphylococcus aureus [4]) | half-life [5] | fold change (FC) (Staphylococcus aureus [6])
CC(C)C[C@H](NC(=O)[C@H](C)NC(=O)[C@H](CCCCN)NC(=O)[C@H](CC(C)C)NC(=O)[C@@H](N)Cc1ccccc1)C(=O)N[C@@H](CCCCN)C(=O)N[C@@H](CCCCN)C(=O)N[C@@H](Cc1ccccc1)CN(CC(N)=O)S(=O)(=O)c1cc(C(F)(F)F)cc(C(F)(F)F)c1 (H-FLKALKK-X8) | 32 µg/mL (≈ 24.4 µM) | 16 µg/mL (≈ 12.2 µM) | 16 µg/mL (≈ 12.2 µM) | 128 µg/mL (≈ 97.5 µM) | 256 µg/mL | 32 µg/mL (≈ 24.4 µM) | 16 µg/mL (≈ 12.2 µM) | 16 µg/mL (≈ 12.2 µM) | 16 µg/mL (≈ 12.2 µM) |  |  | 
CC(C)C[C@H](NC(=O)[C@H](CC(C)C)NC(=O)[C@H](CCCCN)NC(=O)[C@H](CC(C)C)NC(=O)[C@@H](N)Cc1ccccc1)C(=O)N[C@@H](CCCCN)C(=O)N[C@@H](CCCCN)C(=O)N[C@@H](Cc1ccccc1)CN(CC(N)=O)S(=O)(=O)c1ccc(C(F)(F)F)cc1 (H-FLKLLKK-X5) | 16 µg/mL (≈ 12.4 µM) | 8 µg/mL (≈ 6.22 µM) | 4 µg/mL (≈ 3.11 µM) | 16 µg/mL (≈ 12.4 µM) | 128 µg/mL | 32 µg/mL (≈ 24.9 µM) | 8 µg/mL (≈ 6.22 µM) | 8 µg/mL (≈ 6.22 µM) | 4 µg/mL (≈ 3.11 µM) | 32 µg/mL | 2.61 h | 0.25
CC(C)C[C@@H](CN(CC(N)=O)S(=O)(=O)c1cc(C(F)(F)F)cc(C(F)(F)F)c1)NC(=O)[C@H](CCCCN)NC(=O)[C@H](CCCCN)NC(=O)[C@H](CC(C)C)NC(=O)[C@H](CC(C)C)NC(=O)[C@H](CCCCN)NC(=O)[C@H](CC(C)C)NC(=O)[C@@H](N)Cc1ccccc1 (H-FLKLLKK-X6) | 8 µg/mL (≈ 6.06 µM) | 4 µg/mL (≈ 3.03 µM) | 16 µg/mL (≈ 12.1 µM) | 8 µg/mL (≈ 6.06 µM) | 128 µg/mL | 8 µg/mL (≈ 6.06 µM) | 8 µg/mL (≈ 6.06 µM) | 8 µg/mL (≈ 6.06 µM) | 16 µg/mL (≈ 12.1 µM) | 32 µg/mL | 2.24 h | 0.25
CC(C)C[C@H](NC(=O)[C@H](CC(C)C)NC(=O)[C@H](CCCCN)NC(=O)[C@H](CC(C)C)NC(=O)[C@@H](N)Cc1ccccc1)C(=O)N[C@@H](CCCCN)C(=O)N[C@@H](CCCCN)C(=O)N[C@@H](Cc1ccccc1)CN(CC(N)=O)S(=O)(=O)c1cc(C(F)(F)F)cc(C(F)(F)F)c1 (H-FLKLLKK-X8) | 8 µg/mL (≈ 5.91 µM) | 4 µg/mL (≈ 2.95 µM) | 4 µg/mL (≈ 2.95 µM) | 16 µg/mL (≈ 11.8 µM) | 64 µg/mL | 8 µg/mL (≈ 5.91 µM) | 4 µg/mL (≈ 2.95 µM) | 16 µg/mL (≈ 11.8 µM) | 4 µg/mL (≈ 2.95 µM) |  | 3.31 h | 
CC(C)C[C@H](NC(=O)[C@H](CC(C)C)NC(=O)[C@H](CCCCN)NC(=O)[C@H](CCCCN)NC(=O)[C@H](CC(C)C)NC(=O)[C@H](CC(C)C)NC(=O)[C@H](CCCCN)NC(=O)CN(C[C@@H](N)Cc1ccccc1)S(=O)(=O)c1ccc(C(F)(F)F)cc1)C(N)=O (X1-[X4]KLLKKLL-NH2) | 8 µg/mL (≈ 6.39 µM) | 4 µg/mL (≈ 3.19 µM) | 4 µg/mL (≈ 3.19 µM) | 16 µg/mL (≈ 12.8 µM) | 32 µg/mL | 8 µg/mL (≈ 6.39 µM) | 8 µg/mL (≈ 6.39 µM) | 8 µg/mL (≈ 6.39 µM) | 4 µg/mL (≈ 3.19 µM) | 32 µg/mL | 7.96 h | 0.25
CC(C)C[C@H](N)CN(CC(=O)N[C@@H](CCCCN)C(=O)N[C@@H](CC(C)C)C(=O)N[C@@H](CC(C)C)C(=O)N[C@@H](CCCCN)C(=O)N[C@@H](CCCCN)C(=O)N[C@@H](CC(C)C)C(=O)N[C@@H](CC(C)C)C(N)=O)S(=O)(=O)c1cc(C(F)(F)F)cc(C(F)(F)F)c1 (X7-[X2]KLLKKLL-NH2) | 16 µg/mL (≈ 12.4 µM) | 4 µg/mL (≈ 3.11 µM) | 16 µg/mL (≈ 12.4 µM) | 16 µg/mL (≈ 12.4 µM) | 128 µg/mL | 8 µg/mL (≈ 6.22 µM) | 8 µg/mL (≈ 6.22 µM) | 4 µg/mL (≈ 3.11 µM) | 16 µg/mL (≈ 12.4 µM) | 32 µg/mL | 3.33 h | 0.25
